Test results from article PMC7757078, “Comparative in vitro analysis of inhibition of rhinovirus and influenza virus replication by mucoactive secretolytic agents and plant extracts” (BMC Complementary Medicine and Therapies, 2020).
Structures can show the parent of a compound that is named as a salt. Where two headings read alike, the source gives them in different places. Marks after values point to notes of the source that are not given here.

Experiments:
[1] = test system: influenza virus A/Jena/8178/09; details: for CPE inhibition at non-cytotoxic concentrations: 0.0316–100 μM; for CPE inhibition at non-cytotoxic concentrations / Effect on influenza virus A/Jena/8178/09-induced CPE (in words): MDCK cells; for Effect on influenza virus A/Jena/8178/09-induced CPE (in words): non-cytotoxic concentrations
rhinovirus A2 = test: CPE inhibitory assay with rhinovirus A2 in HeLa Ohio cells; details: for CPE inhibition at non-cytotoxic concentrations: 0.0316–100 μM, HeLa Ohio cells
rhinovirus B14 [2] = test: CPE inhibitory assay with rhinovirus B14 in HeLa Ohio cells; assay type: cell-based; details: for CPE inhibition at non-cytotoxic concentrations: 0.0316–100 μM
rhinovirus B14 [3] = details: 3-day pretreatment of primary human tracheal epithelial cells; cited from earlier work
[4] = test system: influenza virus A/Hong Kong/68; details: for CPE inhibition at non-cytotoxic concentrations: 0.0316–100 μM; for Effect on influenza virus A/Hong Kong/68-induced CPE (in words): non-cytotoxic concentrations
HeLa Ohio cells = test: Cytotoxicity determination in HeLa Ohio cells (crystal violet, 72 h); assay type: cell-based, human; details: for 50% Cytotoxic concentration in HeLa cells, Mean: 72 h
Description: HeLa Ohio and MDCK cells were seeded at 1.6 × 10^4 and 2.3 × 10^4 cells/well in 100 μL growth medium in 96 well flat-bottomed microtiter plates, respectively. The cytotoxicity of the test compounds and extracts was determined on two-day-old confluent cell monolayers grown in the internal 60 wells of a microtiter plate (5% carbon dioxide, 37 °C). After removal of the growth medium, 50 μL of test medium and eight half-log dilutions of the reference compounds pleconaril or zanamivir, or eight half-log dilutions of test items in test medium (each concentration in duplicates) were added. The concentration range of reference compounds applied to cytotoxicity assays was 0.0316–100 μM. […] Six cell control wells were incubated with 100 μL test medium. After 72 h of incubation at 37 °C in 5% carbon dioxide atmosphere, the Dynex Immuno Assay System (Guernsey, UK), developed for automated ELISA techniques, was applied to gently wash, stain, measure, and analyze the viability of the cell monolayers based on optical density determination. After aspiration of supernatant, cell monolayers were washed three times with 300 μL physiological phosphate-buffered saline to remove death cells. The remaining cells were fixed and stained with 50 μL of 0.07% crystal violet (w/v), 20% ethanol, 3% formalin solution in water for 10 min. Six washings with 300 μL of water followed to remove excess stain. Before measuring the optical density, we solubilized the crystal violet by adding 100 μL lysis buffer (0.898 g of sodium citrate and 1.25 mL of 1 N HCl in 98.05 mL 47.5% ethanol) for 20 min. The absorbances were red at two wavelengths (550 and 690 nm). Cell viability in a well was defined as the percentage of the mean value of optical density resulting from the six cell controls, which was set 100% cell viability. The inhibitor concentration that reduces the mean value of optical density determined for cell controls by half is called 50% cytotoxic concentration (CC50). A minimum of three independent experiments were performed.

[5] = following the application of 600 mg; cited from earlier work
[6] = test system: rhinovirus (stored under rhinovirus A2; the sentence does not specify which rhinovirus); test: in vitro; details: human
[7] = test system: influenza virus A/Jena/8178/09; test: organism not typed; details: MDCK, read-out: 50% Inhibitory concentration against Influenza A viruses Jena/8178, Mean
[8] = test system: influenza virus A/Jena/8178/09; test: Hemagglutination inhibition assay with human erythrocytes; design: species or system influenza A virus (H1N1pdm09); details: 4 hemagglutination units, maximum test concentration 1 μM
Description: (§1) The negative control (no hemagglutination) consists only 50 μL phosphate-buffered saline (n = 8). […] We added 50 μL of a 1% human erythrocytes solution to each well of the microplate. After a two-hour incubation at 4 °C, we recorded the lowest compound concentration that induces hemagglutination or inhibits virus-mediated hemagglutination (minimum hemagglutination or hemagglutination inhibitory concentration, respectively).

[9] = test system: influenza virus A/Hong Kong/68; test: Time-of-addition plaque-reduction assay in MDCK cells; details: pelargonium extract 50 μg/mL, zanamivir 1 μM
human erythrocytes = test: Hemagglutination by test item in the absence of virus; details: maximum test concentration 1 μM
Description: as §1

viral neuraminidase = details: 37 °C for 24 h
Description: Thereafter, we incubated the assays at 37 °C for further 24 h allowing viral neuraminidase activation [43]. The activated viral neuraminidase abrogates the virus-mediated hemagglutination in absence of inhibitors (hemagglutination control) or in the presence of ineffective inhibitor concentrations. Neuraminidase inhibitors prevent this abrogation of virus-mediated hemagglutination.

[10] = test system: influenza virus A/Hong Kong/68; test: organism not typed; details: MDCK, read-out: 50% Inhibitory concentration against Influenza A viruses HK/68, Mean

For `Nc1c(Br)cc(Br)cc1CN[C@H]1CC[C@H](O)CC1` [Ambroxol, ambroxol], the “CPE inhibition at non-cytotoxic concentrations” value [1] was “less than 50%”, the “Effect on influenza virus A/Jena/8178/09-induced CPE (in words)” value [1] was “did not show any effect” and the “50% Cytotoxic concentration in MDCK cells, Mean” value (MDCK cells; MDCK cells, 72 h) was > 100^a μM. The “CPE inhibition at non-cytotoxic concentrations” value (rhinovirus A2) was less than 50%, the “CPE inhibition at non-cytotoxic concentrations” value (rhinovirus B14 [2]) was less than 50% and the “Concentration reducing the titer of rhinovirus B14 in the supernatant” value (rhinovirus B14 [3]) was “at least 0.1 μM”. For the same molecule, the “CPE inhibition at non-cytotoxic concentrations” value ([4]; MDCK cells) was “less than 50%”, the “Effect on influenza virus A/Hong Kong/68-induced CPE (in words)” value ([4]; MDCK cells) was “did not show any effect” and the “50% Cytotoxic concentration in HeLa cells, Mean” value (HeLa Ohio cells; HeLa Ohio cells) was 61.24 µM. For the same molecule, the “50% Cytotoxic concentration in HeLa cells, Mean” value (HeLa Ohio cells; HeLa Ohio cells, listed as ambroxol) was 51.85 µM.

With `CN(Cc1cc(Br)cc(Br)c1N)C1CCCCC1` [Bromhexine, bromhexine hydrochloride] the “CPE inhibition at non-cytotoxic concentrations” value [1] was “less than 50%”, the “Cytotoxic concentration in MDCK cells” value (MDCK cells; MDCK cells) was 100 µM and the “50% Cytotoxic concentration in MDCK cells, Mean” value (MDCK cells; MDCK cells, 72 h) was 51.29 µM. For the same molecule, the “CPE inhibition at non-cytotoxic concentrations” value (rhinovirus A2) was less than 50%, the “CPE inhibition at non-cytotoxic concentrations” value (rhinovirus B14 [2]) was less than 50% and the “CPE inhibition at non-cytotoxic concentrations” value ([4]; MDCK cells) was “less than 50%”. For the same molecule, the “Reduction of influenza virus A/Hong Kong/68-induced CPE” value ([4]; at 31.6 μM, MDCK cells) was 30%, the “50% Cytotoxic concentration in HeLa cells, Mean” value (HeLa Ohio cells; HeLa Ohio cells) was 51.85 µM and the “50% Cytotoxic concentration in HeLa cells, Mean” value (HeLa Ohio cells; HeLa Ohio cells, listed as bromhexine) was 61.24 µM.

In the case of `CC(=O)N[C@@H](CS)C(=O)O` [N-acetylcysteine], the Maximal plasma concentration [5] is listed as “about 16 μM”, the “CPE inhibition at non-cytotoxic concentrations” value [1] is listed as “less than 50%” and the “Effect on influenza virus A/Jena/8178/09-induced CPE (in words)” value [1] is listed as “did not show any effect”. For the same molecule, the “50% Cytotoxic concentration in MDCK cells, Mean” value (MDCK cells) was > 100^a μM, the “CPE inhibition at non-cytotoxic concentrations” value ([4]; MDCK cells) was “less than 50%” and the “Effect on influenza virus A/Hong Kong/68-induced CPE (in words)” value ([4]; MDCK cells) was “did not show any effect”. For the same molecule, the “50% Cytotoxic concentration in HeLa cells, Mean” value (HeLa Ohio cells; HeLa Ohio cells) was > 100^a μM and the “Cytotoxicity in HeLa Ohio cells (in words)” value (HeLa Ohio cells; tested concentration range) was “non-cytotoxic”.

In the case of `Cc1cc(CCCOc2c(C)cc(-c3noc(C(F)(F)F)n3)cc2C)on1` [Pleconaril, pleconaril], the selectivity ratio [6] is reported as greater than 3500, the IC50 (rhinovirus A2; HeLa, read-out: 50% Inhibitory concentration against Rhinoviruses A2, Mean) is reported as 8 nM and the IC50 (rhinovirus B14 [2]; n.a. = not active up to the maximum non-cytotoxic concentration, read-out: 50% Inhibitory concentration against Rhinoviruses B14, Mean) is reported as 25 nM. For the same molecule, the “Concentration above which a marked dose-dependent cytotoxic effect was seen” value (HeLa Ohio cells; HeLa Ohio cells) was “higher than 10 μM” and the “50% Cytotoxic concentration in HeLa cells, Mean” value (HeLa Ohio cells; HeLa Ohio cells) was 28.75 µM.

With `CC(=O)N[C@H]1[C@H]([C@H](O)[C@H](O)CO)OC(C(=O)O)=C[C@@H]1N=C(N)N` [Zanamivir, zanamivir] the IC50 [7] was 7 nM, the “Selectivity index against Influenza A viruses Jena/8178” value [1] was > 14,285 and the “50% Cytotoxic concentration in MDCK cells, Mean” value (MDCK cells; MDCK cells, 72 h) was > 100^a μM. For the same molecule, the “Cytotoxicity in MDCK cells (in words)” value (MDCK cells; tested concentrations) was “well tolerated”, the “Inhibition of virus-mediated hemagglutination (in words)” value [8] was “neither mediated nor inhibited” and the “Plaque production, treatment during adsorption” value ([9]; 4 °C for 2 h) was “did not prevent”. For the same molecule, the “Plaque production, pre-treatment of cells” value ([9]; 1 h at 37 °C before infection) was “did not prevent”, the “Plaque production, pre-treatment of virus” value ([9]; 1 h at 37 °C before infection) was “did not prevent” and the “Plaque production, treatment after adsorption” value ([9]; in agar overlay for 72 h) was “completely blocked”. The “Plaque production, treatment during and after adsorption” value [9] was “completely blocked”, the “Induction of hemagglutination (in words)” value (human erythrocytes) was “neither mediated nor inhibited” and the “Minimal neuraminidase inhibitory concentration” value (viral neuraminidase) was 0.03 µM. The IC50 [10] was 8 nM and the “Selectivity index against Influenza A viruses HK/68” value [4] was > 12,500.
